This is an account of results in US7932279B2 (ArQule, Inc., priority 2007, dated 2011).

pIC50: −log10 of the molar value. Bounds are passed on as bounds.

The target of one series is T1, HSP90α (Homo sapiens, UniProt P07900).
T1 construct: purchased Stressgen Lot B506492
In words: HSP90 binding assay (fluorescent ELISA, competition with biotinylated Geldanamycin). Particulars: reported as range of IC50's. As to the method:
The biochemical assay is described as follows.
Purified HSP90α […] was purchased from Stressgen Lot B506492. Single use aliquots of the 1.15 mg/ml stock were prepared and stored at −80° C. to avoid multiple freeze-thaw cycles.
A Nunc Maxisorb plate was coated overnight at 4° C. with 200 ng of HSP90/well dissolved in DPBS. The following day the plates were washed with TBST and blocked for 2 h at room temperature with blocking buffer (20 mM HEPES pH 7.3, 1 mM EDTA, 5 mM MgCl2, 100 mM KCl, 5% BSA). Blocking buffer was removed by washing plates with TBST, and test compounds dissolved in assay buffer (20 mM HEPES pH 7.3, 1 mM EDTA, 5 mM MgCl2, 100 mM KCl, 1% BSA) were added to plate. […] The reaction is incubated for 60 minutes at room temperature. […] Competitive inhibitory compounds will block this interaction from occurring.
The reactions were stopped by washing the plate with TBST. The binding of the bio-GM is detected by the addition of an Alkaline Phosphatase tagged Streptavidin molecule. A TBST wash eliminates any unbound detection agent, and the Alkaline Phosphate substrate Attophos is introduced. This substrate generates a fluorescent signal at […] when excited at […]. These plates can be monitored on either a Victor 5 or Perkin Elmer Envision multilabel reader.

For series [1] the following is noted: aqueous solution; cited from earlier work.
A further series has as its system SK-BR-3. The series is described as follows: MTS assay (cell viability). Format: cell-based. The conditions noted are these: Homo sapiens; SK-BR-3 cells, 72 hours with compound, 50% reduction in number of viable cells; read-out: IC50'S(SK-BR-3). How it is done:
The anti-proliferative effects of biochemically active compounds were measured utilizing the MTS assay. The generalized procedure is describes as follows:
The cells are then trypsinized and re-plated in 96 well sterile cell culture plates in 130 μl/well growth media at a density that allows confluency of approximately 50% after 72 hours of growth. These starting densities vary across cell lines based on individual doubling times. The day following plating, the cell was treated with an appropriate concentration of compound diluted in DMSO. Cell plates were allowed to grow undisturbed at 37° C., 5% CO2 for 72 h. After 72 hours, 30 μl of a solution of 0.046 mg/ml Phemazine methosulfate (PMS) (Fluka product 68600) and 1.9 mg/ml MTS reagent ([3-(4,5-dimethylthiazol-2-yl)-5-(3 carboxymethoxyphenyl)-2-(4-sulfophenyl)-2H-tetrazolium, inner salt (Promega product G1111) is added directly to the well. Plate is re-incubated at 37° C., 5% CO2 for 4 hr. Plates were then read on the Perkin Elmer Envision to determine absorbance at 490 nm.
Cell viability was determined by measuring the activity of dehydrogenase enzymes in metabolically active cells using a tetrazolium compound, MTS. The assay was performed as described in Promega Technical Bulletin No. 169 (CellTiter 96 Aqueous Non-Radioactive Cell Proliferation Assay). Ten human cancer cell lines were assayed (see, e.g. Table 1). Cells were maintained at 37° C. and 5% CO2 in DMEM media (4.5 g/L glucose) supplemented with 10% heat-inactivated FBS, 10 mM L-glutamine, and 10 mM Hepes pH 7.5. Briefly, cells were seeded in 96-well plates as set forth in Table 1 and incubated for 16-24 hours. Candidate compounds were serially diluted in DMSO, further diluted in cell culture media, and then added to cells (final DMSO concentration of 0.33%). Cells were incubated in the presence of candidate compound for 72 hours. MTS stock solution (MTS 2 gm/L, PMS […] in PBS) was added to the cells (final concentration MTS […] and PMS 7.67 mg/L) and incubated for 4 hours. SDS was added to a final concentration of 1.4% and absorbance at 490 nm was measured within two hours using a plate reader. The IC50 was defined as the concentration of compound that results in a 50% reduction in the number of viable cells as compared to control wells treated with DMSO only (0.33%) and was calculated using non-linear regression analysis. IC50 values were given in Table 3 for the compounds listed.
Background: Formazan colour is commonly taken as a measure of viable cells.

The conditions of series [2]: clinical trials; cited from earlier work.

`COCCCn1nnnc1-c1cc(-c2cc(C(C)C)ccc2OC)c(O)cc1O` [Compound 16, 5′-isopropyl-2′-methoxy-5-[1-(3-methoxy-propyl)-1H-tetrazol-5-yl]-biphenyl-2,4-diol] registered a melting point of 174 to 176 °C. In addition, on HSP90α, the pIC50 is 5.00 to 6.00.

Regarding `C=CCNC1=C2C[C@@H](C)C[C@H](OC)[C@H](O)[C@@H](C)/C=C(\C)[C@H](OC(N)=O)[C@@H](OC)/C=C\C=C(/C)C(=O)NC(=CC1=O)C2=O` [Compound 17-AAG, 17-Allylamino-17-demethoxygeldanamycin], the solubility entry in series [1] is on record as “low solubility”.

With `COc1ccc(C(C)C)cc1-c1cc(-c2nnnn2CCc2ccccc2)c(O)cc1O` [Compound 26, 5′-isopropyl-2′-methoxy-5-(1-phenethyl-1H-tetrazol-5-yl)-biphenyl-2,4-diol], the melting point was 206 to 209 °C. The same compound gave a pIC50 on HSP90α of 4.30 to 5.00.

`COc1ccc(C(C)C)cc1-c1cc(-c2nnnn2CCCOC(C)C)c(O)cc1O` [Compound 99, 5-[1-(3-Isopropoxy-propyl)-1H-tetrazol-5-yl]-5′-isopropyl-2′-methoxy-biphenyl-2,4-diol]: in the series with SK-BR-3, the pIC50 is 4.87.

`COc1ccc(C(C)C)cc1-c1cc(-c2nnnn2C(C)C)c(O)cc1O` [Compound 110]: the pIC50 in the series on SK-BR-3 was 5.80.

`COC1=C2C[C@@H](C)C[C@H](OC)[C@H](O)[C@@H](C)/C=C(\C)[C@H](OC(N)=O)[C@@H](OC)/C=C\C=C(/C)C(=O)NC(=CC1=O)C2=O` [geldanamycin]: in series [1], the solubility result is on record as “poorly soluble”. Also, in series [2], the hepatotoxicity result is listed as “hepatotoxicity proved problematic”.

As to `COc1ccc(C(C)C)cc1-c1cc(-c2nnnn2C2CCC2)c(O)cc1O` [Compound 108, 5-(1-Cyclobutyl-1H-tetrazol-5-yl)-5′-isopropyl-2′-methoxy-biphenyl-2,4-diol], the pIC50 with SK-BR-3 was 4.86.

With `COc1ccc(C(C)C)cc1-c1cc(-c2nnnn2CCCc2ccccc2)c(O)cc1O` [Compound 100], the pIC50 in the series on SK-BR-3 was 5.49.

As to `CO[C@H]1/C=C\C=C(/C)C(=O)NC2=CC(=O)C(NCCN(C)C)=C(C[C@@H](C)C[C@H](OC)[C@H](O)[C@@H](C)/C=C(\C)[C@@H]1OC(N)=O)C2=O` [DMAG, 17-Dimethylaminoethylamino-17-demethoxygeldanamycin], the solubility result in series [1] is “low solubility”.

In the case of `CCCCn1nnnc1-c1cc(-c2cccc(C(=O)N3CCN(S(=O)(=O)CC)CC3)c2)c(O)cc1O` [Compound 53, [5′-(1-Butyl-1H-tetrazol-5-yl)-2′,4′-dihydroxy-biphenyl-3-yl]-(4-ethanesulfonyl-piperazin-1-yl)-methanone], on HSP90α, the pIC50 is below 4.30.

For `COCCCn1nnnc1-c1cc(-c2ccccc2C(F)(F)F)c(O)cc1O` [Compound 13, 5-[1-(3-Methoxy-propyl)-1H-tetrazol-5-yl]-2′-trifluoromethyl-biphenyl-2,4-diol], on HSP90α, the pIC50 is below 4.30.

Take `COCCCn1nnnc1-c1cc(-c2cccc(C(=O)O)c2)c(O)cc1O` [Compound 47]: the pIC50 on HSP90α was below 4.30.

The compound `CCCCn1nnnc1-c1cc(-c2cccc(C(=O)OC)c2)c(O)cc1O` [Compound 22] showed a pIC50 on HSP90α of 4.30 to 5.00.

As for `CCCCn1nnnc1-c1cc(-c2cccc(C(=O)O)c2)c(O)cc1O` [Compound 46], the pIC50 at HSP90α was below 4.30.

Compound `COCCn1nnnc1-c1cc(-c2cccc(C(F)(F)F)c2)c(O)cc1O` [Compound 12] gave a pIC50 at HSP90α below 4.30.

The compound `COCCCn1nnnc1-c1cc(Br)c(O)cc1O` [Compound 25] gave a pIC50 on HSP90α below 4.30.

Compound `COCCCn1nnnc1-c1cc(-c2cccc(C)c2)c(O)cc1O` [Compound 8, 5-[1-(3-Methoxy-propyl)-1H-tetrazol-5-yl]-3′-methyl-biphenyl-2,4-diol] showed a pIC50 on HSP90α of 4.30 to 5.00.

Take `CCCCn1nnnc1-c1cc(-c2cccc(C(=O)NCCN(C)C)c2)c(O)cc1O` [Compound 58]: the pIC50 at HSP90α was below 4.30.

Take `COCCCn1nnnc1-c1cc(-c2cccc(C(F)(F)F)c2)c(O)cc1O` [Compound 7, 5-[1-(3-methoxy-propyl)-1H-tetrazol-5-yl]-3′-trifluoromethyl-biphenyl-2,4-diol]: the melting point lay in the range of 144 to 182 °C. The pIC50 on HSP90α is 4.30 to 5.00. For the same compound, the pIC50 in the series with SK-BR-3 was 4.82.

Compound `CCCCn1nnnc1-c1cc(-c2cccc(C(=O)N3CCN(CC)CC3)c2)c(O)cc1O` [Compound 50] gave a pIC50 at HSP90α below 4.30.

Turning to `COCCCn1nnnc1-c1cc(-c2ccc(OC(F)(F)F)cc2)c(O)cc1O` [Compound 73], at HSP90α, the pIC50 was below 4.30.

As a reminder, the pIC50 is the negative decadic logarithm of the IC50, by convention in mol/L. One may read the melting point as the temperature of the solid-liquid transition.
